Experimental findings from ChEMBL document CHEMBL3745613, “Fragment-assisted hit investigation involving integrated HTS and fragment screening: Application to the identification of phosphodiesterase 10A (PDE10A) inhibitors” (Bioorg Med Chem Lett, 2016) are described below.

pIC50: −log10 of the molar value. Values after ≈ are worked out from the molar mass of the structure shown.

Data set [1] addresses T1, cAMP and cAMP-inhibited cGMP 3',5'-cyclic phosphodiesterase 10A (Homo sapiens, UniProt Q9Y233). As to the kind of experiment: Inhibition of human recombinant PDE10A using cAMP as substrate preincubated for 20 mins followed by substrate addition measured after 2 hrs by FRET assay.
A short description of data set [2]: Equilibrium solubility of the compound in phosphate buffer at pH 7.4. Format: physicochemical.
Data set [3] has as its target cGMP-dependent 3',5'-cyclic phosphodiesterase (Homo sapiens, UniProt O00408). As to the kind of experiment: Inhibition of human recombinant PDE2A using cAMP as substrate preincubated for 20 mins followed by substrate addition measured after 2 hrs by FRET assay.
For data set [4], the target named is T1, cAMP and cAMP-inhibited cGMP 3',5'-cyclic phosphodiesterase 10A. As to the kind of experiment: Binding affinity to human recombinant PDE10A after 15 mins by surface plasmon resonance assay.
Data set [5] has the same target. As to the kind of experiment: Inhibition of human recombinant PDE10A using cAMP as substrate at 30 uM preincubated for 20 mins followed by substrate addition measured after 2 hrs by FRET assay.

As a reminder, the pIC50 is the negative decadic logarithm of the IC50, by convention in mol/L. The term solubility (thermodynamic) denotes solubility found after equilibrating the solid with the medium. By inhibition is commonly meant how much of the control response was suppressed.

T1 sequence (Q9Y233 whole entry): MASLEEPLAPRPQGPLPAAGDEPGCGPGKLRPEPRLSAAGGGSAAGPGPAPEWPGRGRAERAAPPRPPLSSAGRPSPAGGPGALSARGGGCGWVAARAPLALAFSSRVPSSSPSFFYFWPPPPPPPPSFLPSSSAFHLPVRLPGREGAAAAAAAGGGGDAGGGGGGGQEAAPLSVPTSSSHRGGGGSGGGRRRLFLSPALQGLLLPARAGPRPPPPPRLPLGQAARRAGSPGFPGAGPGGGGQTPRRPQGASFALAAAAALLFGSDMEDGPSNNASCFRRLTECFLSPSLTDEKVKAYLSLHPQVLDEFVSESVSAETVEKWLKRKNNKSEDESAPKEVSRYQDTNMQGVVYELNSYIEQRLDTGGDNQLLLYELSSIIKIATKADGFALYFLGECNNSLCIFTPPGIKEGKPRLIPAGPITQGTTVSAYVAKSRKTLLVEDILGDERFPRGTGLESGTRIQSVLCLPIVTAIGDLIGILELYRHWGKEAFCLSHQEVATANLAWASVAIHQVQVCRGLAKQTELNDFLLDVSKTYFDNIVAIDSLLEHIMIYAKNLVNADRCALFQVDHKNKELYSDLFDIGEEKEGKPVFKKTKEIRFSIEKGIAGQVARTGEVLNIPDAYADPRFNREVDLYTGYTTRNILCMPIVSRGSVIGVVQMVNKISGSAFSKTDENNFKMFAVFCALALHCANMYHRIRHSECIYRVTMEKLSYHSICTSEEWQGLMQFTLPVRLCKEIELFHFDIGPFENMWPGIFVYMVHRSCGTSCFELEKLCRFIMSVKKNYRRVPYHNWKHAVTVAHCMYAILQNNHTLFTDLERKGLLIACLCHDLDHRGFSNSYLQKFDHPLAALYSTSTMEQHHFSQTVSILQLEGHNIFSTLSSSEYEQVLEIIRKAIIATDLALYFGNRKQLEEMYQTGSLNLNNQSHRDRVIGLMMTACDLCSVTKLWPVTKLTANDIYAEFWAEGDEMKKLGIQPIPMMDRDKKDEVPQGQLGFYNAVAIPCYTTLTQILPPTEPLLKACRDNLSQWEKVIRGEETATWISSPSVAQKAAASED
Sequence of cGMP-dependent 3',5'-cyclic phosphodiesterase (O00408 whole entry): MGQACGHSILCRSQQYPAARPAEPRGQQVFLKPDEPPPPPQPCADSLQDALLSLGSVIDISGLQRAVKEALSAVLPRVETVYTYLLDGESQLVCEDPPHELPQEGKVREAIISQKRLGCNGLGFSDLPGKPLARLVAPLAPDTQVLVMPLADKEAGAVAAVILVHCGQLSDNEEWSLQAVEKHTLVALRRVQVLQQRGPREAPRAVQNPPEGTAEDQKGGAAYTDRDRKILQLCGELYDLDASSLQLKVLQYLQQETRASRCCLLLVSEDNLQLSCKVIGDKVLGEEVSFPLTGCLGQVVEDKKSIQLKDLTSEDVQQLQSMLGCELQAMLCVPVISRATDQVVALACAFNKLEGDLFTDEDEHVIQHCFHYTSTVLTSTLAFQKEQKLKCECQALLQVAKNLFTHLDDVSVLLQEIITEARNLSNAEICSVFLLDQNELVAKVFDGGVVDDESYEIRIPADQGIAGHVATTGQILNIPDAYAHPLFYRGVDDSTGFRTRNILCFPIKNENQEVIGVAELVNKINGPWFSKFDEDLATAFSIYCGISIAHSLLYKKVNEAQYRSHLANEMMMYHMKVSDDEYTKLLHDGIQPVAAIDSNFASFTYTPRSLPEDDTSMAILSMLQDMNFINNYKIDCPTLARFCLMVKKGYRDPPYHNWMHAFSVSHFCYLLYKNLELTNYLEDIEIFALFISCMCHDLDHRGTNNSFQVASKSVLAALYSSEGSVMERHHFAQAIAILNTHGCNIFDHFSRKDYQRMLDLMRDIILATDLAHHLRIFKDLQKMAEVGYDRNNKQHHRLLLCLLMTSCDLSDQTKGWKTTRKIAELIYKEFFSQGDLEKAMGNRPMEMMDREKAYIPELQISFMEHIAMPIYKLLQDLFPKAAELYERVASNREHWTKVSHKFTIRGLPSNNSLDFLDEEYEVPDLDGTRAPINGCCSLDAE

`Cn1c(-c2cnc(NC(=O)c3cccc(C#N)c3)s2)nc2ccccc21`: the pIC50 in data set [1] is 6.92. The compound further showed a thermodynamic solubility in data set [2] of less than 1 µM.

Turning to `Cc1nocc1C(=O)Nc1cc(-c2nc3ccccc3[nH]2)[nH]n1`, the pIC50 in data set [1] was 5.42. In data set [2], this compound came in with a solubility (thermodynamic) of 2 µM (≈ 0.617 µg/mL).

For the compound `Cc1c(Cl)cccc1C(=O)Nc1ncc(-c2nc3ccccc3n2C)s1`, the figures for the negative logarithm of the IC50 (pIC50) in data set [3] and in data set [1] were less than 4.00 and 7.80, respectively. Moreover, in data set [2], the solubility (thermodynamic) was less than 1 µM.

For `Cc1cc(-c2ccco2)[nH]n1`, the negative-log IC50 (pIC50) in data set [4] is 3.07.

In the case of `Cc1csc(-c2ccccn2)n1`, in data set [4], the pIC50 was 3.49.

With `Cc1cccc(C(=O)Nc2cc(-c3nc4ccccc4[nH]3)[nH]n2)c1Cl`, in data set [1], the pIC50 is 6.55. Moreover, the solubility (thermodynamic) in data set [2] was less than 1 µM.

`Cc1c(Cl)cccc1C(=O)Nc1cc(-c2nc3ccccc3[nH]2)[nH]n1`: the pIC50 is less than 4.00 in data set [3] and 7.00 in data set [1]. The same compound had a solubility (thermodynamic) in data set [2] of less than 1 µM.

In the case of `N#Cc1cccc(C(=O)Nc2ncc(-c3nc4ccccc4n3CCN)s2)c1`, in data set [1], the negative logarithm of the IC50 (pIC50) was 6.31. Also, the thermodynamic solubility in data set [2] amounted to 13 µM (≈ 5.05 µg/mL).

Turning to `CS(=O)(=O)c1cccc(C(=O)Nc2cc(-c3nc4ccccc4[nH]3)[nH]n2)c1`, the pIC50 in data set [1] is less than 4.52. The inhibition in data set [5] was 23%.

Consider `N#Cc1cccc(C(=O)Nc2ncc(-c3nc4ccccc4[nH]3)s2)c1`, for which the values for the pIC50 in data set [3] and in data set [1] were less than 4.00 and 6.96, respectively. The thermodynamic solubility in data set [2] amounted to 1 µM (≈ 0.345 µg/mL).
